According to patent US10550120B2, “Indole alkaloid compound having immune checkpoint inhibitory action” (TOHOKU UNIVERSITY, priority 2016, dated 2020):

Columns and labels:
[1] = test system: CTLA-4; test: Intracellular staining of MT2 cells with fluorescence-labeled anti-CTLA-4 antibody and measurement by flow cytometry; format: cell-based, human; conditions: 48±2 hours; for Peak MFI of CTLA-4: isotype IgG2a subtracted, average of n=3
Method: (§1) MT2 cells from human adult T-cell leukemia were used. Leukemia cells of human adult T-cell leukemia (ATL) express CD4 and CD25 molecules on the cell surface and are considered to be derived from Treg (Chen S. et al., International Immunology 18:269-277 (2005)). MT2 cells were used in experiments as models of Treg since the cells are CD4 positive, CD25 positive, and FOXP3 positive celles derived from ATL.
(§2) The example compounds (compounds 1-17) of the present invention were dissolved in dimethylsulfoxide (DMSO) to prepare each 50 mmol/L solution, which was preserved at −80° C.
(1) MT2 cells were suspended in RPMI1640 medium (hereinafter referred to as “the medium”) supplemented with 10% fetal calf serum (FCS) and 1° penicillin/streptomycin (P/S) to give 3×10^5 cells/mL suspension and 3 mL of the suspension was added to each well of a 6-well plate. To each well were added 0.6 or 1.2 μL of the test compound solutions (compounds 1, 2, and 4), 0.75 or 1.5 μL of the test compound solution (compound 9), and 1.5 μL of the test compound solutions (compounds 8 and 10-17), and the cell cultures were incubated in a CO2 gas incubator (under 37° C., 5% CO2) and cultured for 48±2 hours. As a control of compound 1, 2 and 4, only 1.2 μL of DMSO was added to the well. In addition, as a control of compound 8-17, only 1.5 μL of DMSO was added to the well.
(2) A piece of the cell culture was sampled to count cells with a cell counter (BIO RAD TC-20). The cell culture was centrifuged at 300×g for 5 min, and the supernatant was removed. The residue was suspended in phosphate buffered saline (supplemented with 1% bovine serum albumin (BSA), without calcium and magnesium) (1% BSA/PBS) to adjust the concentration of cells to 5-10×10^6 cells/mL.
(3) To 5 ml tube, each 50 μL of the cell suspension was added.
(4) Foxp3/Transcription Factor Fix/Perm Concentrate (4×) (Cat. No. TNB-1020-L050) (Solution A) in FOXP3/Transcription Factor Staining kit (TONBO biosciences) was diluted with Foxp3/Transcription Factor Fix/Perm Diluent (1×) (Cat. No. TNB-1022-L160) (for dilution of Solution A) to prepare 1× Solution A.
(5) 1 mL of 1× Solution A was added to each tube and mixed by gentle pipetting. Subsequently, it was left at room temperature for 30 min, centrifuged at 300×g for […], and the supernatant was discarded.
(6) Flow Cytometry Perm Buffer (10×) (Cat. No. TNB-1213-L150) (Solution B) in the kit was diluted 10-fold with water to prepare 1× Solution B.
(7) 2 mL of 1× Solution B was added to the tube and centrifuged at 300×g for 5 min. The supernatant was discarded. 2 μL of 2% normal mouse serum/PBS was added to the tube and the tube was gently pipetted. Subsequently, it was left at room temperature for 15 min.
(8) In the CTLA-4 measurement, 20 μL of anti-CTLA-4 antibody (BECKMAN COULTER, CD152-PE clone BN13I M2282) or mouse IgG2a (BECKMAN COULTER, IgG2a (Mouse)-PE A09142) for the control was added to the tube and the tube was gently stirred. Subsequently, it was left in the dark at room temperature for 30 min, and 2 mL of the 1× Solution B was added thereto, the mixture was centrifuged at 300×g for 5 min, and the supernatant was discarded. 2 mL of the 1× Solution B was added to the tube again, the mixture was centrifuged at 300×g for 5 min, and the supernatant was discarded.
(9) Within 2 hours after the solution in the tube was suspended in 0.5 mL of 1% BSA/PBS, and the fluorescence at 577 nm was measured with 488 nm excitation with a flow cytometer (Sony: Cell Sorter SH800). The results were analyzed with software, FlowJo (Tree Star Inc.). The mean peak fluorescence intensity (MFI) of CTLA-4 and mean peak fluorescence intensity of isotype control IgG2a were calculated from histgrams of the measured fluorescence intensity and number of cells, and mean fluorescence intensity of IgG2a was subtracted from that of CTLA-4. Experiments were conducted in n=3, and the average values were shown.

[2] = test system: IL-10; test: Measurement of human IL-10 amount in culture supernatant of MT2 cells with ELISA kit (Test 1); format: cell-based; conditions: 48±2 hours; for activity at 12.5 µM / activity at 25 µM: Homo sapiens, 48 h, DMSO control = 100%, read-out: % against control (IL-10 production)
Method: as §1, §2
The amount of IL-10 production in the control and the example compounds was measured to evaluate the inhibitory effect on IL-10 production of the example compounds of the present invention.
(1) MT2 cells are suspended in RPMI1640 medium (hereinafter referred to as “the medium”) supplemented with 10% fetal calf serum (FCS) and 1% penicillin/streptomycin (P/S) to give 3×10^5 cells/mL suspension, and 1 mL of the suspension was added to each well of a 24-well plate. […] The cell cultures were incubated 48±2 hours in a CO2 incubator (under a condition of 37° C., 5 CO2). DMSO was diluted 50-fold with the medium, and 20 μL of the diluent was added to the well to make a control of compounds 1-7. In addition, DMSO was diluted 50-fold with the medium, and 25.0 μL of the diluent was added to the well to make a control of compounds 8-17.
(2) A piece of the cell culture was sampled to count cells with a cell counter (BIO RAD TC-20). The cell culture was centrifuged at 300×g for 5 minutes and the supernatant was collected as a sample for IL-10 measurement. When not measured within a day, it was preserved in a freezer at −80° C.
(3) Human IL-10 ELISA kit II (BD OptEIA) was used on the measurement. The kit contains wells treated with anti-IL-10 antibody (8 wells/strip), Standard/Sample diluent, vials comprising freeze-dried IL-10 Standard (1280 pg/vial), ELISA diluent, 20× Wash Buffer, Detection antibody, Enzyme Concentrate, TMB One Step Substrate Reagent, Stop Solution, and cover sheets.
(4) To a vial containing IL-10 Standard was added […] Standard/Sample diluent, and the vial was stood at room temperature for 15 minutes to be dissolved (Standard sample stock solution 1L-10 concentration: 500 pg/mL).
(5) Standard samples in each concentration for making a standard curve were prepared as follows. Firstly, to 300 μL of the medium was added 300 μL of the standard sample stock solution, and the mixture was mixed with a Voltex mixer (250 pg/mL). Next, 300 μL of the standard sample of 250 pg/mL was added to 300 μL of the medium and the mixture was mixed with a Voltex mixer (125 pg/mL). The same procedures were successively repeated to prepare standard solutions of 62.5, 31.25, 15.625, and 7.8125 pg/mL. As 0 pg/mL standard solution, the medium was used.
(6) A kit containing wells treated with anti-IL-10 antibody (8 wells/strip) was warmed to room temperature and 50 μL of ELISA diluent in the kit was added into each well.
(7) To each well containing ELISA diluent, 100 μL of the standard samples of each concentration and each test sample (diluded 50-100 fold with medium) were added.
(8) After the wells were sealed with a cover sheet and gently tapped, they were left at room temperature for 2 hours.
(9) 20× Wash Buffer was diluted 20-fold with water to prepare 1× Wash Buffer.
(10) After the reaction was done for 2 hours, the solutions in each well were aspirated and washed 5 times with 300 μL of 1× Wash Buffer.
(11) After Enzyme Concentrate (4 μL per 8 wells) was added to Detection antibody (1 ml per 8 wells), the solution was mixed by a Vortex mixer and then a necessary amount of Working Detector was prepared.
(12) 100 μL of Working Detector was added to each well, covered with a cover sheet, and the wells were left at room temperature for an hour.
(13) After the reaction was done for an hour, the solutions in wells were aspirated and washed 7 times with 300 μL of 1× Wash Buffer. […]

[3] = Homo sapiens, 48 h, 25.0 μmol/L, DMSO control = 100%, read-out: % against control (CTLA-4 expression)

Compound | Peak MFI of CTLA-4 ([1]; 25.0 μmol/L) | activity at 25 µM [1, 3] [%] | IL-10 (ng/10^6 cells) ± standard deviate (n = 3) ([2]; 12.5 μmol/L) [ng/10^6 cells] | IL-10 (ng/10^6 cells) ± standard deviate (n = 3) ([2]; 25.0 μmol/L) [ng/10^6 cells] | activity at 12.5 µM ([2]; 12.5 μmol/L) [%] | activity at 25 µM ([2]; 25.0 μmol/L) [%] | Peak MFI of CTLA-4 ([1]; 12.5 μmol/L) | activity at 12.5 µM ([1]; Homo sapiens, 48 h, 12.5 μmol/L, DMSO control = 100%, read-out: % against control (CTLA-4 expression)) [%]
COC(=O)C1=CN2CCc3c([nH]c4ccc(Cl)cc34)[C@@H]2[C@@H]2[C@@H](C)[C@@H](O)C[C@H]12 [Compound 12] | 485 | 57.2 | 7.1 ± 0.2 | 4.8 ± 0.3 | 75.7 | 50.9 | – | –
COC(=O)C1=CN2CCc3c([nH]c4ccc(OC)cc34)[C@@H]2[C@@H]2[C@@H](C)[C@@H](O)C[C@H]12 [Compound 10] | 570 | 56.3 | 8.8 ± 0.4 | 5.6 ± 0.3 | 93.5 | 59.6 | – | –
COC(=O)C1=CN2CCc3c([nH]c4ccc(OCc5ccccc5)cc34)[C@@H]2[C@@H]2[C@@H](C)[C@@H](O)C[C@H]12 [Compound 15] | 284 | 37.7 | 6.5 ± 0.2 | 0.6 ± 0.4 | 59.3 | 5.1 | – | –
COC(=O)C1=CN2CCc3c([nH]c4cc(Cl)ccc34)[C@@H]2[C@@H]2[C@@H](C)[C@@H](O)C[C@H]12 [Compound 9] | 539 | 52.8 | 11.1 ± 1.3 | 6.1 ± 1.3 | 67.7 | 37.5 | 778 | 76.3
